From patent US8604217B2, “Compound, a process for its preparation, a pharmaceutical composition, use of a compound, a method for modulating or regulating serine/threonine kinases and a serine/threonine kinases modulating agent” (Selvita S.A., priority 2009, dated 2013)

What was measured:
Experiment in all cases: KinaseProfiler kinase panel
Format in all cases: biochemical
PKG1β(h) = PKG1β(h) (Homo sapiens (Human), UniProt Q13976)
EGFR(T790M, L858R)(h) = EGFR(T790M, L858R)(h) (Homo sapiens (Human), UniProt P00533, L858R/T790M)
Ret(V804M)(h) = Ret(V804M)(h) (Homo sapiens (Human), UniProt P07949, V804M)
PKCθ(h) = PKCθ(h) (Homo sapiens (Human), UniProt Q04759)
CDK9/cyclin T1(h) = CDK9/cyclin T1(h) (Homo sapiens (Human), UniProt P50750)
PASK(h) = PASK(h) (Homo sapiens (Human), UniProt Q96RG2)
PIM-3(h) = PIM-3(h) (Homo sapiens (Human), UniProt Q86V86)
cKit(V654A)(h) = cKit(V654A)(h) (Homo sapiens (Human), UniProt P10721, V654A)
CaMKIIγ(h) = CaMKIIγ(h) (Homo sapiens (Human), UniProt Q13555)
p70S6K(h) = p70S6K(h) (Homo sapiens (Human), UniProt P23443)
Sequence of p70S6K(h) (P23443 whole entry): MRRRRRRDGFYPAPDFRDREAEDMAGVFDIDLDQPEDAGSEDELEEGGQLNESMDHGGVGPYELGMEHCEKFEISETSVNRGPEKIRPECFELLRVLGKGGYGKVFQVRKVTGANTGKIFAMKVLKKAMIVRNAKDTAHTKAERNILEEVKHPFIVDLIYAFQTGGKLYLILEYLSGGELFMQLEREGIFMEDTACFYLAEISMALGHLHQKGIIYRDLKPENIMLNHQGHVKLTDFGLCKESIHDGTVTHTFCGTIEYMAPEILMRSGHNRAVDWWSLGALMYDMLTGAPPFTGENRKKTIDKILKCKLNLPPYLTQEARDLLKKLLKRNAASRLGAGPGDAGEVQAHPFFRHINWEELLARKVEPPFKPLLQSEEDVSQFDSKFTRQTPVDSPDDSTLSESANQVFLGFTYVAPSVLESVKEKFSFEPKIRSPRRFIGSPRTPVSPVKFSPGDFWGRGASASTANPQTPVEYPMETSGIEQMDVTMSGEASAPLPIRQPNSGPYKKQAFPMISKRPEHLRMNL

CK2(h) = CK2(h) (Homo sapiens (Human), UniProt P68400)
Lyn(h) = Lyn(h) (Homo sapiens (Human), UniProt P07948)
FGFR1(V561M)(h) = FGFR1(V561M)(h) (Homo sapiens (Human), UniProt P11362, V561M)
Sequence of FGFR1(V561M)(h) (P11362 22-822 V561M): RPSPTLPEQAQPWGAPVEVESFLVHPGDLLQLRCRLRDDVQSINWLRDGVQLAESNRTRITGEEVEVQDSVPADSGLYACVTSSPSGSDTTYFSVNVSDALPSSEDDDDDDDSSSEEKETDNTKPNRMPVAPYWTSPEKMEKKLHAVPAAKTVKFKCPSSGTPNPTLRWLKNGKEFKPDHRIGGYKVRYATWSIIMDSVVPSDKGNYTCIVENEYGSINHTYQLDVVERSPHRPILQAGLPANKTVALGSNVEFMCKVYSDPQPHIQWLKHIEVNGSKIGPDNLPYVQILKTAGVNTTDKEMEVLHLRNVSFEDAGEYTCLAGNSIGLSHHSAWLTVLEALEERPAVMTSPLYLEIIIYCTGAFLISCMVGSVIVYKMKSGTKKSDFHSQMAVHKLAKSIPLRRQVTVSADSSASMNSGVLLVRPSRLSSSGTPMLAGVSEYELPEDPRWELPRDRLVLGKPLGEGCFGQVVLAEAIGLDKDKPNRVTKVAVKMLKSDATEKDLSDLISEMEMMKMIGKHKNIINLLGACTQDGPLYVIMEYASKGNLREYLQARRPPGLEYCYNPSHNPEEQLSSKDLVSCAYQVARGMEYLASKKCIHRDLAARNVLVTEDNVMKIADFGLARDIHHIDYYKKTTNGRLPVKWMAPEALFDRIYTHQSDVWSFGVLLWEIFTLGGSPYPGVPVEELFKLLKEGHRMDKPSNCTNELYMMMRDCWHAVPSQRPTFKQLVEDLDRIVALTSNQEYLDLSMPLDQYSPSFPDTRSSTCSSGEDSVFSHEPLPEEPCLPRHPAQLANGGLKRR

Met(M1268T)(h) = Met(M1268T)(h) (Homo sapiens (Human), UniProt P08581, M1268T)
Met(D1246H)(h) = Met(D1246H)(h) (Homo sapiens (Human), UniProt P08581, D1246H)
IGF-1R(h) = IGF-1R(h) (Homo sapiens (Human), UniProt P08069)
CHK2(h) = CHK2(h) (Homo sapiens (Human), UniProt O96017)
RIPK2(h) = RIPK2(h) (Homo sapiens (Human), UniProt O43353)
NEK3(h) = NEK3(h) (Homo sapiens (Human), UniProt P51956)
SAPK2a(T106M)(h) = SAPK2a(T106M)(h) (Homo sapiens (Human), UniProt Q16539, T106M)
ULK2(h) = ULK2(h) (Homo sapiens (Human), UniProt Q8IYT8)
Sequence of ULK2(h) (Q8IYT8 whole entry): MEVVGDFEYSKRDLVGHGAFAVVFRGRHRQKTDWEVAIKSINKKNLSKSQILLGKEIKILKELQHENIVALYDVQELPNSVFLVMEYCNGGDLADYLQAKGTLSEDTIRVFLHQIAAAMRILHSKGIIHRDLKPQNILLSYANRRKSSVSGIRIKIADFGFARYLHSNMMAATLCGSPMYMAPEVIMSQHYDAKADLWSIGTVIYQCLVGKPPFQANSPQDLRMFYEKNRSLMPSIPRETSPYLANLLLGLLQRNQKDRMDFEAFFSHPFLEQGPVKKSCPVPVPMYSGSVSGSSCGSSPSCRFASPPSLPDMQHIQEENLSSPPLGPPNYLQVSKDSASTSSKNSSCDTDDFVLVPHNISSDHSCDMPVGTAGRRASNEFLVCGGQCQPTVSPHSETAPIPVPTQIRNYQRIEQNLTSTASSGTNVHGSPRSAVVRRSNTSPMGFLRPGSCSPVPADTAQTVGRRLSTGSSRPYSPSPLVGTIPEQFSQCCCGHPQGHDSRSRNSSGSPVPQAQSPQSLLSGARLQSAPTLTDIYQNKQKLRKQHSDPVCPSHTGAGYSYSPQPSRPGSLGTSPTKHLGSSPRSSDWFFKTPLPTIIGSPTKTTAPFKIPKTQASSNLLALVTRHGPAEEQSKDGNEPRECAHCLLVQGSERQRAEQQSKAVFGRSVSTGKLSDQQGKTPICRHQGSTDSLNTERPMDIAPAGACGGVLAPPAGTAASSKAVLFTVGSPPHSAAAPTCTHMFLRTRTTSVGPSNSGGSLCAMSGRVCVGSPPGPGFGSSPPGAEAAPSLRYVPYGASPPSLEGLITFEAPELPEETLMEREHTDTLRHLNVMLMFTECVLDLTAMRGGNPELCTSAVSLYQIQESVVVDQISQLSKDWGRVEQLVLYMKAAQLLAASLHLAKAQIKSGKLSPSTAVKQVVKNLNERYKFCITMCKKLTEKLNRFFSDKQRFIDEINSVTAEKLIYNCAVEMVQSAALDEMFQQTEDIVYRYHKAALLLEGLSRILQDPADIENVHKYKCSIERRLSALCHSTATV

ROCK-I(h) = ROCK-I(h) (Homo sapiens (Human), UniProt Q13464)
PAK5(h) = PAK5(h) (Homo sapiens (Human), UniProt Q9P286)
MAPK1(h) = MAPK1(h) (Homo sapiens (Human), UniProt P27361)
MRCKα(h) = MRCKα(h) (Homo sapiens (Human), UniProt Q5VT25)
Blk(m) = Blk(m) (Mus musculus (Mouse), UniProt P16277)
Sequence of Blk(m) (P16277 whole entry): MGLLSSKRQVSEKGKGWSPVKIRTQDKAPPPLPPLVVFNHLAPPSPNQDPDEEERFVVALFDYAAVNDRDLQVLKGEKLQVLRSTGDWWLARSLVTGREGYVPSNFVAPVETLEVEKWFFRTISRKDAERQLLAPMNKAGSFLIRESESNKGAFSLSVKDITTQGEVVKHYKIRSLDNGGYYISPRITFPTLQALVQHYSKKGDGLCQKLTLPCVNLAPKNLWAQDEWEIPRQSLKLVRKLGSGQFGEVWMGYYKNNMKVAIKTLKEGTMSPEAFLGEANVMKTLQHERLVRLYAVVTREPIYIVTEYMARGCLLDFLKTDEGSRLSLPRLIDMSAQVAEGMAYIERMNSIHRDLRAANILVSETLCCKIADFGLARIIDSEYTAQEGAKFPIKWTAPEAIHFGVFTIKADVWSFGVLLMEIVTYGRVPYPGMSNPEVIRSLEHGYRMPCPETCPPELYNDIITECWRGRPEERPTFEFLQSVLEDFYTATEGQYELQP

JNK1α1(h) = JNK1α1(h) (Homo sapiens (Human), UniProt P45983)
Sequence of JNK1α1(h) (P45983 other isoform, or with tags, fused parts or gaps): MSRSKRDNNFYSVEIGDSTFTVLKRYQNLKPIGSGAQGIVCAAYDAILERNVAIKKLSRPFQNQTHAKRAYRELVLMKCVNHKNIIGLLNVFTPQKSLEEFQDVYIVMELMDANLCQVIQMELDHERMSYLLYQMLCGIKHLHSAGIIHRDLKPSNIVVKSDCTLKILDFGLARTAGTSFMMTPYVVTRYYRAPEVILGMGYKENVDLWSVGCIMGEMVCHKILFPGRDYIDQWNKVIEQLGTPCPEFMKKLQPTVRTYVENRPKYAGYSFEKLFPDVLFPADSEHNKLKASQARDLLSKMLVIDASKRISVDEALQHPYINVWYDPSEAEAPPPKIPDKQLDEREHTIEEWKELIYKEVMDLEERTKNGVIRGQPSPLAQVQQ

Pyk2(h) = Pyk2(h) (Homo sapiens (Human), UniProt Q14289)
Abl (Q252H) (h) = Abl (Q252H) (h) (Homo sapiens (Human), UniProt P00519, Q252H)
ASK1(h) = ASK1(h) (Homo sapiens (Human), UniProt Q99683)
MKK4(m) = MKK4(m) (Mus musculus (Mouse), UniProt P47809)
DCAMKL2(h) = DCAMKL2(h) (Homo sapiens (Human), UniProt Q8N568)
Sequence of DCAMKL2(h) (Q8N568 whole entry, looked up): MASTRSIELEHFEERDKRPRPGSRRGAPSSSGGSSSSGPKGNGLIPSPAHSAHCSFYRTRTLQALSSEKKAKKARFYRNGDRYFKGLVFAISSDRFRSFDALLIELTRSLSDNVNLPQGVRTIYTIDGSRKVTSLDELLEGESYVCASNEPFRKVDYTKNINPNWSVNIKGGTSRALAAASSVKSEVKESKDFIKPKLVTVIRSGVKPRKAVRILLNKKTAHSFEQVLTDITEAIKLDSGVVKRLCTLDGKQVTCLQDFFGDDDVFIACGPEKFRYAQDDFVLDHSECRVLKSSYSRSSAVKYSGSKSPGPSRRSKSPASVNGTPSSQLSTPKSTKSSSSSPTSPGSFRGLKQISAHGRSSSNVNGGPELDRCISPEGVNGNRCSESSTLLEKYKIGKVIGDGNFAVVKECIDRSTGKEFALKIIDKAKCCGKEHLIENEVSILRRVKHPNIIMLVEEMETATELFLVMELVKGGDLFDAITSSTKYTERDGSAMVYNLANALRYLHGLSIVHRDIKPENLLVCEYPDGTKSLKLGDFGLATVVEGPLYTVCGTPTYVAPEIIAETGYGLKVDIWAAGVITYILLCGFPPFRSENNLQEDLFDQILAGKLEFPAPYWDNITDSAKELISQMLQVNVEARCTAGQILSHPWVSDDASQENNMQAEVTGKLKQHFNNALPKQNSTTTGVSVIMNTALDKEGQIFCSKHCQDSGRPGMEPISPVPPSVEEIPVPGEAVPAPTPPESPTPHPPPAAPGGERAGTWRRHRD

BTK(R28H)(h) = BTK(R28H)(h) (Homo sapiens (Human), UniProt Q06187, R28H)
Sequence of BTK(R28H)(h) (Q06187 whole entry R28H): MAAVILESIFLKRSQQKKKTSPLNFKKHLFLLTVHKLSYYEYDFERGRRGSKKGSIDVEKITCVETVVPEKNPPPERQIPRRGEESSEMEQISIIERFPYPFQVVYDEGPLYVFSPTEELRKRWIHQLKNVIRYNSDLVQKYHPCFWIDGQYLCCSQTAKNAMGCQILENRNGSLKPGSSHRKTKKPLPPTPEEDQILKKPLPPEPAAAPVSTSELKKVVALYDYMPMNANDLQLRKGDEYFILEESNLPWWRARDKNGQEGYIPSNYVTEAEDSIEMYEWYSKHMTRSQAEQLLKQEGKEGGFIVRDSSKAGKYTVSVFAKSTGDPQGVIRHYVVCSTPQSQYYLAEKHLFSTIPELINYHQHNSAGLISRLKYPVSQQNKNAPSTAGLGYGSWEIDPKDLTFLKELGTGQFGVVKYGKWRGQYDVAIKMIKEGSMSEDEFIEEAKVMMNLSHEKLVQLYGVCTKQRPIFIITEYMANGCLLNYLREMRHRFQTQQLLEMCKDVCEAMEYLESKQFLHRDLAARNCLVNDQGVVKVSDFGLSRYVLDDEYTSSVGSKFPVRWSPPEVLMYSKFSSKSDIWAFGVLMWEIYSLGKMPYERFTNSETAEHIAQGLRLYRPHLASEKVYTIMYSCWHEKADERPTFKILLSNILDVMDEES

PKCε(h) = PKCε(h) (Homo sapiens (Human), UniProt Q02156)
DDR2(h) = DDR2(h) (Homo sapiens (Human), UniProt Q16832)
EphA2(h) = EphA2(h) (Homo sapiens (Human), UniProt P29317)
Abl(h) = Abl(h) (Homo sapiens (Human), UniProt P00519)
BTK(h) = BTK(h) (Homo sapiens (Human), UniProt Q06187)
Sequence of BTK(h) (Q06187 whole entry): as the sequence (Q06187 whole entry R28H) above, with H28R counted along it

Plk1(h) = Plk1(h) (Homo sapiens (Human), UniProt P53350)

remaining activity at 1 µM (PKG1β(h)): 5% | remaining activity at 1 µM (EGFR(T790M, L858R)(h)): 11% | remaining activity at 1 µM (Ret(V804M)(h)): 20% | remaining activity at 1 µM (PKCθ(h)): 26% | remaining activity at 1 µM (CDK9/cyclin T1(h)): 27% | remaining activity at 1 µM (PASK(h)): 28% | remaining activity at 1 µM (PIM-3(h)): 34% | remaining activity at 1 µM (cKit(V654A)(h)): 36% | remaining activity at 1 µM (CaMKIIγ(h)): 41% | remaining activity at 1 µM (p70S6K(h)): 56% | remaining activity at 1 µM (CK2(h)): 59% | remaining activity at 1 µM (Lyn(h)): 65% | remaining activity at 1 µM (FGFR1(V561M)(h)): 69% | remaining activity at 1 µM (Met(M1268T)(h)): 70% | remaining activity at 1 µM (Met(D1246H)(h)): 72% | remaining activity at 1 µM (IGF-1R(h)): 75% | remaining activity at 1 µM (CHK2(h)): 76% | remaining activity at 1 µM (RIPK2(h)): 79% | remaining activity at 1 µM (NEK3(h)): 85% | remaining activity at 1 µM (SAPK2a(T106M)(h)): 86% | remaining activity at 1 µM (ULK2(h)): 88% | remaining activity at 1 µM (ROCK-I(h)): 90% | remaining activity at 1 µM (PAK5(h)): 93% | remaining activity at 1 µM (MAPK1(h)): 94% | remaining activity at 1 µM (MRCKα(h)): 96% | remaining activity at 1 µM (Blk(m)): 97% | remaining activity at 1 µM (JNK1α1(h)): 97% | remaining activity at 1 µM (Pyk2(h)): 97% | remaining activity at 1 µM (Abl (Q252H) (h)): 98% | remaining activity at 1 µM (ASK1(h)): 100% | remaining activity at 1 µM (MKK4(m)): 100% | remaining activity at 1 µM (DCAMKL2(h)): 101% | remaining activity at 1 µM (BTK(R28H)(h)): 102% | remaining activity at 1 µM (PKCε(h)): 104% | remaining activity at 1 µM (DDR2(h)): 105% | remaining activity at 1 µM (EphA2(h)): 106% | remaining activity at 1 µM (Abl(h)): 107% | remaining activity at 1 µM (BTK(h)): 107% | remaining activity at 1 µM (Plk1(h)): 117%
Structure (SMILES): CCn1c(N2CCNCC2)nc2c(Br)c(Br)c(Br)c(Br)c21 [Compound 416, 4,5,6,7-tetrabromo-1-ethyl-2-(piperazin-1-yl)-1H-benzo[d]imidazole]
